This is an account of results in patent US10294229B2, “Heteroaryl substituted aminopyridine compounds” (BRISTOL-MYERS SQUIBB COMPANY, priority 2015, dated 2019).

One experiment concerns the target IRAK4 (Homo sapiens (Human), UniProt Q9NWZ3). Kind of experiment: IRAK4 Inhibition Assay. It is filed as biochemical. As to conditions: ATP 500 μM; IRAK4 0.6 nM. The method, boiled down: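 Mobility-shift kinase assay: 0.6 nM IRAK4, 500 μM ATP, 1.5 μM fluorescent peptide, 60 min, room temperature. Percent inhibition was normalised between enzyme-free and DMSO-only wells.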

In experiment [1] the test system is Human whole blood stimulated with a TLR2 agonist (lipoteichoic acid), IL-6 levels. Kind of experiment: IRAK4 Whole Blood Assay. The settings on record: lipoteichoic acid 10 μg/mL. It is filed as cell-based. The protocol: Human whole blood containing the anti-coagulant ACD-A was plated in 384-well plate (25 μL/well) and incubated with compounds for 60 minutes at 37° C. in a 5% CO2 incubator. The blood was stimulated with a TLR2 agonist, 10 μg/mL final concentration of lipoteichoic acid (Invivogen, San Diego, Calif.) in 25 μL RPMI (Gibco) for 5 hours in a 5% CO2 incubator. At the end of the incubation, plates were centrifuged at 2300 rpm for 5 minutes. Supernatants were harvested and analyzed for IL-6 levels by Flow Cytometry beads assay (BD Biosciences, San Jose, Calif.).

Chain of IRAK4 (Q9NWZ3 whole entry, species assumed): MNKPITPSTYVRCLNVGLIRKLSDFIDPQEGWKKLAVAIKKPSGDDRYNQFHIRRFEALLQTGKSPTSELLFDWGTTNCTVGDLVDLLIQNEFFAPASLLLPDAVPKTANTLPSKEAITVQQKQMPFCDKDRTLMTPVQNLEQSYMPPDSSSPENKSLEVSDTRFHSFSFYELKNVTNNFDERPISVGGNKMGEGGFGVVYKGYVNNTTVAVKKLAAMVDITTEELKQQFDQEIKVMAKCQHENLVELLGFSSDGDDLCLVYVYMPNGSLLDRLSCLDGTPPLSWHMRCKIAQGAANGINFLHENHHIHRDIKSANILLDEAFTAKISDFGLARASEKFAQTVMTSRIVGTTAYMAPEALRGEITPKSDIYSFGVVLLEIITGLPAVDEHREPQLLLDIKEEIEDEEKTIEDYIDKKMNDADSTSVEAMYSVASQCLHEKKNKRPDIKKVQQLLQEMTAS

The term IC50 denotes the concentration that gives 50% inhibition. The EC50 is the midpoint of the concentration-response curve. Higher therefore signals a need for much substance. With `CCN1CC(n2cc(-c3cnc(-n4ncc5cc(C#N)cnc54)cc3NC(C)C)nn2)C1` [Example 149, 1-(5-(1-(1-ethylazetidin-3-yl)-1H-1,2,3-triazol-4-yl)-4-(isopropylamino)pyridin-2-yl)-1H-pyrazolo[3,4-b]pyridine-5-carbonitrile], on IRAK4, the IC50 stood at 2 nM. The compound also yielded an EC50 in experiment [1] (Homo sapiens) of 730 nM.

In the case of `CC(C)Nc1cc(-n2ncc3cc(C#N)cnc32)ncc1-n1cc(CCc2ccccc2)nn1` [Example 319, 1-(4-(isopropylamino)-5-(4-phenethyl-1H-1,2,3-triazol-1-yl)pyridin-2-yl)-1H-pyrazolo[3,4-b]pyridine-5-carbonitrile], the IC50 on IRAK4 turned out to be 2 nM. The compound further returned an EC50 in experiment [1] (Homo sapiens) of 920 nM.

For the compound `CC(C)Nc1cc(-n2ncc3cnc(N)nc32)ncc1-n1cc(CCC(C)(C)O)nn1` [Example 380, 4-(1-(6-(6-amino-1H-pyrazolo[3,4-d]pyrimidin-1-yl)-4-(isopropylamino)pyridin-3-yl)-1H-1,2,3-triazol-4-yl)-2-methylbutan-2-ol], the IC50 on IRAK4 came to 6 nM. For the same compound, a half-maximal effect in experiment [1] (EC50) was put at 460 nM.

Turning to `CC(C)Nc1cc(-n2ncc3cc(C#N)cnc32)ncc1-n1cc(C2CCC(N)CC2)nn1` (stereo not drawn) [Example 340, 1-(5-(4-((1s,4s)-4-aminocyclohexyl)-1H-1,2,3-triazol-1-yl)-4-(isopropylamino)pyridin-2-yl)-1H-pyrazolo[3,4-b]pyridine-5-carbonitrile], the IC50 on IRAK4 was 4 nM. In experiment [1] (Homo sapiens), it took 810 nM to reach a half-maximal effect (EC50).

Turning to `CC(C)Nc1cc(-n2ncc3cc(C#N)cnc32)ncc1-c1cn(C[C@H](N)Cc2ccccc2)nn1` [Example 169, (R)-1-(5-(1-(2-amino-3-phenylpropyl)-1H-1,2,3-triazol-4-yl)-4-(isopropylamino)pyridin-2-yl)-1H-pyrazolo[3,4-b]pyridine-5-carbonitrile], the IC50 on IRAK4 amounted to 17 nM. This compound also returned an EC50 in experiment [1] (Homo sapiens) of 2140 nM.

`CC(C)(O)CCc1cn(-c2cnc(-n3ncc4cc(C#N)cnc43)cc2NC2CCC(O)CC2)nn1` (stereo not drawn) [Example 385, 1-(5-(4-(3-hydroxy-3-methylbutyl)-1H-1,2,3-triazol-1-yl)-4-(((1 s,4s)-4-hydroxycyclohexyl)amino)pyridin-2-yl)-1H-pyrazolo[3,4-b]pyridine-5-carbonitrile]: the EC50 in experiment [1] (Homo sapiens) worked out at 490 nM.

As to `CC(C)Nc1cc(-n2ncc3cc(C#N)cnc32)ncc1-c1cc(C2CNC2)no1` [Example 397, 1-(5-(3-(azetidin-3-yl)isoxazol-5-yl)-4-(isopropylamino)pyridin-2-yl)-1H-pyrazolo[3,4-b]pyridine-5-carbonitrile], the IC50 at IRAK4 worked out at 5 nM. The same compound displayed an EC50 in experiment [1] (Homo sapiens) of 460 nM.

`CCn1cc(-c2cnc(-n3ncc4cc(Cl)cnc43)cc2NC(C)C)nn1` [Example 39, 2-(5-chloro-1H-pyrazolo[3,4-b]pyridin-1-yl)-5-(1-ethyl-1H-1,2,3-triazol-4-yl)-N-isopropylpyridin-4-amine]: the IC50 at IRAK4 worked out at 14 nM. The compound further displayed an EC50 in experiment [1] (Homo sapiens) of 4300 nM.

`CC(=O)N1CCC(n2cc(-c3cnc(-n4ncc5cc(C#N)cnc54)cc3NC(C)C)nn2)C1` (stereo not drawn) [Example 158, 1-(5-(1-(1-acetylpyrrolidin-3-yl)-1H-1,2,3-triazol-4-yl)-4-(isopropylamino)pyridin-2-yl)-1H-pyrazolo[3,4-b]pyridine-5-carbonitrile]: the concentration for half-maximal inhibition (IC50) at IRAK4 came to 2 nM. Also, a half-maximal effect in experiment [1] (EC50) was put at 520 nM.

With `CC(C)Nc1cc(-n2ncc3cc(C#N)cnc32)ncc1-c1cn(C(C)C)cn1` [Example 225, 1-(5-(1-isopropyl-1H-imidazol-4-yl)-4-(isopropylamino)pyridin-2-yl)-1H-pyrazolo[3,4-b]pyridine-5-carbonitrile], the IC50 on IRAK4 turned out to be 17 nM. Further, the EC50 in experiment [1] (Homo sapiens) is 5590 nM.

Regarding `CC(C)Nc1cc(-n2ncc3cc(C#N)cnc32)ncc1-c1cn([C@H]2CCN(C(=O)c3ccncc3)C[C@H]2O)nn1` [Example 185, 1-(5-(1-((3R,4S)-3-hydroxy-1-isonicotinoylpiperidin-4-yl)-1H-1,2,3-triazol-4-yl)-4-(isopropylamino)pyridin-2-yl)-1H-pyrazolo[3,4-b]pyridine-5-carbonitrile], the half-maximal inhibitory concentration (IC50) at IRAK4 was found to be 8 nM. The same compound displayed a half-maximal effective concentration (EC50) in experiment [1] (Homo sapiens) of 1040 nM.

Take `CC(C)Nc1cc(-n2ncc3cc(C#N)cnc32)ncc1-c1cn(CC(O)CO)nn1` (stereo not drawn) [Example 131, 1-(5-(1-(2,3-dihydroxypropyl)-1H-1,2,3-triazol-4-yl)-4-(isopropylamino)pyridin-2-yl)-1H-pyrazolo[3,4-b]pyridine-5-carbonitrile]: the IC50 on IRAK4 came to 12 nM. This compound also returned an EC50 in experiment [1] (Homo sapiens) of 1080 nM.

Regarding `CCOCC(O)Cn1cc(-c2cnc(-n3ncc4cc(C#N)cnc43)cc2NC(C)C)nn1` (stereo not drawn) [Example 137, 1-(5-(1-(3-ethoxy-2-hydroxypropyl)-1H-1,2,3-triazol-4-yl)-4-(isopropylamino)pyridin-2-yl)-1H-pyrazolo[3,4-b]pyridine-5-carbonitrile], the IC50 at IRAK4 worked out at 8 nM. The same compound returned a concentration for a half-maximal effect (EC50) in experiment [1] (Homo sapiens) of 1690 nM.

In the case of `CC(C)Nc1cc(-n2cnc3cc(C#N)cnc32)ncc1-c1cn(C[C@H](C)O)nn1` [Example 69, (S)-3-(5-(1-(2-hydroxypropyl)-1H-1,2,3-triazol-4-yl)-4-(isopropylamino)pyridin-2-yl)-3H-imidazo[4,5-b]pyridine-6-carbonitrile], the half-inhibitory concentration (IC50) at IRAK4 was found to be 10 nM. The compound also had an EC50 in experiment [1] (Homo sapiens) of 1370 nM.

Regarding `CC(C)Nc1cc(-n2ncc3cc(C#N)cnc32)ncc1-n1cc(CC[C@@](C)(O)CO)nn1` [Example 388, (R)-1-(5-(4-(3,4-dihydroxy-3-methylbutyl)-1H-1,2,3-triazol-1-yl)-4-(isopropylamino)pyridin-2-yl)-1H-pyrazolo[3,4-b]pyridine-5-carbonitrile], the IC50 at IRAK4 was determined as 6 nM. In addition, it took 260 nM to reach a half-maximal effect in experiment [1] (Homo sapiens) (EC50).

For `CC(C)Nc1cc(-n2ncc3cc(C#N)cnc32)ncc1-c1cn(CC(O)C(F)(F)F)nn1` (stereo not drawn) [Example 129, 1-(4-(isopropylamino)-5-(1-(3,3,3-trifluoro-2-hydroxypropyl)-1H-1,2,3-triazol-4-yl)pyridin-2-yl)-1H-pyrazolo[3,4-b]pyridine-5-carbonitrile], the IC50 at IRAK4 came to 7 nM. The midpoint of the response in experiment [1] (Homo sapiens), the EC50, lay at 830 nM.

Regarding `CC(C)Nc1cc(-n2ncc3cc(C#N)cnc32)ncc1-c1cc(CCC(C)(C)O)on1` [Example 429, 1-(5-(5-(3-hydroxy-3-methylbutyl)isoxazol-3-yl)-4-(isopropylamino)pyridin-2-yl)-1H-pyrazolo[3,4-b]pyridine-5-carbonitrile], the IC50 at IRAK4 is 2 nM. This compound had an EC50 in experiment [1] (Homo sapiens) of 450 nM.

Regarding `CC(C)Nc1cc(-n2ncc3cc(C#N)cnc32)ncc1-c1cn(C)nn1` [Example 164, 1-(4-(isopropylamino)-5-(1-methyl-1H-1,2,3-triazol-4-yl)pyridin-2-yl)-1H-pyrazolo[3,4-b]pyridine-5-carbonitrile], the IC50 on IRAK4 was 8 nM. In experiment [1] (Homo sapiens), this compound registered an EC50 of 600 nM.

`CC(C)Nc1cc(-n2ncc3cc(C#N)cnc32)ncc1-c1cn([C@H]2CCN(S(C)(=O)=O)C[C@H]2OS(C)(=O)=O)nn1` [Example 182, (3R,4S)-4-(4-(6-(5-cyano-1H-pyrazolo[3,4-b]pyridin-1-yl)-4-(isopropylamino)pyridin-3-yl)-1H-1,2,3-triazol-1-yl)-1-(methylsulfonyl)piperidin-3-yl methanesulfonate]: the IC50 on IRAK4 came out at 5 nM. The same compound displayed a concentration giving a half-maximal response (EC50) in experiment [1] (Homo sapiens) of 750 nM.

As for `CCOC(=O)Cn1cc(-c2cnc(-n3ccc4cncnc43)cc2NC(C)C)nn1` [Example 2, ethyl 2-(4-(4-(isopropylamino)-6-(7H-pyrrolo[2,3-d]pyrimidin-7-yl)pyridin-3-yl)-1H-1,2,3-triazol-1-yl)acetate], at IRAK4, the IC50 stood at 1 nM. The compound also came in with an EC50 in experiment [1] (Homo sapiens) of 10000 nM.

As for `CC(C)Nc1cc(-n2ncc3cc(C#N)cnc32)ncc1-c1cn(CCN)nn1` [Example 172, 1-(5-(1-(2-aminoethyl)-1H-1,2,3-triazol-4-yl)-4-(isopropylamino)pyridin-2-yl)-1H-pyrazolo[3,4-b]pyridine-5-carbonitrile], in experiment [1] (Homo sapiens), the EC50 was found to be 950 nM.

Regarding `CC(C)Nc1cc(-n2ncc3cc(C#N)cnc32)ncc1-c1cc([C@@H]2CCCCN2)on1` [Example 430, (S)-1-(4-(isopropylamino)-5-(5-(piperidin-2-yl)isoxazol-3-yl)pyridin-2-yl)-1H-pyrazolo[3,4-b]pyridine-5-carbonitrile], the EC50 in experiment [1] (Homo sapiens) worked out at 470 nM.

For `C[C@@H](CO)Nc1cc(-n2ncc3cc(C#N)cnc32)ncc1-n1cc(CCC(C)(C)O)nn1` [Example 376, (S)-1-(5-(4-(3-hydroxy-3-methylbutyl)-1H-1,2,3-triazol-1-yl)-4-((1-hydroxypropan-2-yl)amino)pyridin-2-yl)-1H-pyrazolo[3,4-b]pyridine-5-carbonitrile], in experiment [1] (Homo sapiens), it took 380 nM to reach a half-maximal effect (EC50).

`CC(F)Cc1cn(-c2cnc(-n3ncc4cc(C#N)cnc43)cc2NC(C)C)nn1` (stereo not drawn) [Example 294, 1-(5-(4-(2-fluoropropyl)-1H-1,2,3-triazol-1-yl)-4-(isopropylamino)pyridin-2-yl)-1H-pyrazolo[3,4-b]pyridine-5-carbonitrile] showed a concentration giving a half-maximal response (EC50) in experiment [1] (Homo sapiens) of 1710 nM.

For `CCCn1cc(-c2cnc(-n3ncc4cc(C#N)c(N)nc43)cc2NC2CCOCC2)nn1` [Example 51, 6-amino-1-(5-(1-propyl-1H-1,2,3-triazol-4-yl)-4-((tetrahydro-2H-pyran-4-yl)amino)pyridin-2-yl)-1H-pyrazolo[3,4-b]pyridine-5-carbonitrile], the IC50 on IRAK4 came out at 3 nM.

Consider `CC(C)CCn1cc(-c2cnc(-n3ncc4cc(Cl)cnc43)cc2NC(C)C)nn1` [Example 217, 2-(5-chloro-1H-pyrazolo [3,4-b]pyridin-1-yl)-5-(1-isopentyl-1H-1,2,3-triazol-4-yl)-N-isopropylpyridin-4-amine], for which, at IRAK4, the IC50 came to 6 nM.
